In one data set the test system is OSCC cell line (HSC-2). As to conditions: in vitro; cited from earlier work.
A further data set concerns SCC7 cell line. The experiment in a line: Cell viability assay (MTT). Format: cell-based, murine. The protocol: Murine squamous cell carcinoma cell line, SCC7 purchased from Prof. Reinhard Zeidler, at the German Research Center for Environmental Health in Munich, were cultured in DMEM containing 10% v/v FBS and (2 mM) L-glutamine, kept at a temperature of 37° C. and in humidified atmosphere containing 5% v/v CO2 and 95% v/v air. For maintain cell growth, cells were split every 2-3 days using […] trypsin solution for detaching.
Tablets (1×3 mm) containing alginate (0.8, 1.6 mg) and liposomes (0.8 mg) in the form of layered or homogenous, either empty or DOX loaded liposomes were prepared as described above. The final concentration of DOX in each tablet was (1.68 mg mL^−1). To examine the toxicity of the tablets containing the drug on SCC7 cell line, at first cells were seeded at a uniform density of 15,000 cells per well on 96 well plates in […] DMEM medium. On the day of the experiment, medium was replaced with fresh medium containing the tablets, free DOX and in some wells empty fresh medium to serve as control. Cells were incubated for 4, 8, 12, 24, 48 and 72 hr in humidified atmosphere at 37° C. Cells viability was measured using the MTT assay. The medium was removed and (100 μl) of MTT (1 mg mL^−1) in PBS^−1 were added to each well and incubated at 37° C. for 4 hr. […] The absorbance was measured at 570 nm and 690 nm for the background absorbance. […]

Apoptosis induction and cell viability data for 1 molecule are collected here from patent publication US20240091145A1, “DRY MUCO-ADHESIVE COMPOSITIONS AND USE THEREOF” (TECHNION RESEARCH & DEVELOPMENT FOUNDATION LIMITED, priority 2021, published 2024).

On to `COc1cccc2c1C(=O)c1c(O)c3c(c(O)c1C2=O)C[C@@](O)(C(=O)CO)C[C@@H]3O[C@H]1C[C@H](N)[C@H](O)[C@H](C)O1` [free DOX, Doxorubicin], for which the apoptosis induction result in the data set with OSCC cell line (HSC-2) is “induce apoptosis through the activation of caspase-3, -8 and -9”. The cell viability with SCC7 cell line (SCC7, long times) is 3-10%; with SCC7 cell line (SCC7, short times), 28-40%.
